Tests used:
[1] = tested on: THP-1 cells; assay: Reverse transcriptase and real-time quantitative PCR of LPS-induced transcription in THP-1 cells; assay type: cell-based, Human
Procedure: (§1) THP-1 cells were cultured in RPMI1640 medium, supplemented with 10% FBS/100 units/ml Penicillin/10 μg/ml Streptomycin at 37° C., under 5% CO2. […] For the untreated control group (no LPS, no compound) and LPS alone group, equivalent volumes of DMSO were added to the medium. Cells were cultured at 37° C. and pellets were collected at 0 hr, 1 hr, 3 hr, 6 hr, 12 hr & 24 hr. Cell pellets were stored at −80° C. if RNA isolation was not conducted immediately. For experiments to study cytokine secretion in culture supernatants, THP-1 cells were washed twice with PBS, resuspended at 3.4×10^5/ml and cultured in 96-well plates at 250 μL, per well at 37° C. […] Supernatants were collected at different time points as indicated in the figures and were kept at ≦−20° C. until analysis of cytokine production.
Total RNA was isolated using RNeasy mini kit from QIAGEN (Valencia, Calif.) according to the manufacturer's instructions. RNA samples were stored at −80° C.
Two to three micrograms of DNase-treated total RNA were reverse transcribed to cDNA using the Transcriptor First Strand cDNA Synthesis Kit (Roche Diagnostics Corporation, Indianapolis, Ind.) according to the instructions.
Real-time PCR was carried out with the LightCycler FastStart DNA Master^plus SYBR Green I kit (Roche Diagnostics) according to the manufacturer's instructions.
The PCR profile was as follows: (i) denaturation at 95° C. for 10 min. (ii) 45 cycles of 0 s at 95° C., 5 s at 54-58° C. (depending on Tm of the primers), 6-16 s (determined by the length of amplicon) at 72° C. (iii) melting curves for 0 s at 95° C., 15 s at 65° C. and 0 s at 95° C. (iv) cooling at 40° C. for 30 s. Transition rates were: 20° C./s for all steps except 0.1° C./s for 95° C. segment 3 of the melting curves.
For data analysis, the baseline adjustment was carried out in the “arithmetic” mode, and the fluorescence curve analysis was carried out in the “Second Derivative Maximum” mode of the LightCycler™ software (Version 3.5).
The primers used for real-time PCR were as follows (5′ to 3′): […]

[2] = tested on: THP-1 cells; assay: LPS-induced cytokine, chemokine and MMP-9 secretion by THP-1 cells (ELISA); assay type: cell-based, Human
Procedure: as §1
Human IL-6, IL18, IL1β, MCP-1, MMP-9, and mouse IL-6, IL18, TNFα, MCP-1 and IL-1β were measured with ELISA kits (R&D Systems) according to the manufacturer's instructions.
Samples were tested for cytokines using the Bio-plex cytokine assay kit (Bio-Rad Laboratories, Inc.) according to the manufacturer's instructions. Briefly, 50 μL anti-cytokine antibody conjugated beads were added to wells of a filter plate pre-equilibrated with assay buffer. The beads were washed, then 50 μL of undiluted cell culture supernatant or 4-fold diluted plasma samples were added and incubated for 2 hours. Biotinylated anti-cytokine antibody (25 μL) was added to each well and the plate was incubated with shaking for 1.5 hours. Streptavidin-PE (50 μL) was added to each well and the plate was incubated with shaking for 45 min. between incubations, wells were washed 3 times with 100 μL wash buffer and unbound analytes were filtered using a vacuum manifold. Following the last wash step, 125 μL of assay buffer was added to each well and the plate was placed on a shaker for 10 min. The plate was read on a Luminex^100 instrument (Luminex Corporation, Austin, Tex.) according to the manufacturer's instructions. The concentration of cytokine was determined from a standard curve assayed at the same time.

[3] = tested on: THP-1 cells; assay: Inhibition of LPS-induced IL-6 release in THP-1 cells, concentration series; assay type: cell-based; conditions: Homo sapiens, 100 ng/ml LPS, 0.5% FBS, supernatants at 48 hr, read-out: IC50 for inhibition of LPS-induced IL-6 secretion
Procedure: (§2) THP-1 cells at 3.4×10^5/ml were cultured in 96-well plates in 0.5% FBS/RPMI 1640, in the absence or presence of 100 ng/ml LPS, plus or minus tipifarnib (starting from 5 μM, followed by 3-fold series dilution). The concentrations of tipifarnib were: 5 μM, 1.67 μM, 0.56 μM, 0.19 μM and 0.06 μM. Supernatants were collected at 48 hr. IL6 was quantified using ELISA kit from R&D Systems.
as §2, with “Medium components were certified to contain less than 0.3 endotoxin units/ml. THP-1” for “THP-1”, “LPS” for “LPS,”, “tested” for “quantified”

[4] = simvastatin 10 μM or tipifarnib 5 μM, 6 and 12 hours

Cn1cncc1C(N)(c1ccc(Cl)cc1)c1ccc2c(c1)c(-c1cccc(Cl)c1)cc(=O)n2C (single isomer, unassigned; (+)) [tipifarnib, (+)-6-[amino(4-chlorophenyl)(1-methyl-1H-imidazol-5-yl)methyl]-4-(3-chlorophenyl)-1-methyl-2(1H)-quinolinone]
Induction of IL-8 by LPS [1, 4]: no significant effect
STAT1 induction by LPS [1, 4]: inhibited
Induction of IL-8 by LPS ([1]; simvastatin 10 μM or tipifarnib 5 μM, 3 hours): unaffected
peak of LPS-induced IL-6 transcription ([1]; simvastatin 10 μM or tipifarnib 5 μM, 6 hours): inhibition
LPS-induced IL-6 transcription ([1]; simvastatin 10 μM or tipifarnib 5 μM, 12 hours): inhibition
LPS-induced IL-1β transcription ([1]; simvastatin 10 μM or tipifarnib 5 μM, after 6 and 12 hours): significantly downregulated
LPS-induced MCP-1 transcription ([1]; simvastatin 10 μM or tipifarnib 5 μM, from 6 hours): inhibited significantly
LPS-induced IL-1β transcription ([1]; simvastatin 10 μM or tipifarnib 5 μM, up to 3 hours): unaffected
MyD88 induction by LPS ([1]; tipifarnib 5 μM, 6 and 12 hours): almost complete inhibition
MMP-9 induction by LPS ([1]; tipifarnib 5 μM, 12 hours): no induction
LPS-induced TNF-α production, second phase of induction ([2]; after 22 h up to 48 hours): dose-dependent inhibition
LPS-induced TNF-α production, initial peak ([2]; between 5 and 10 hours): unaffected
LPS-induced IL-8 production ([2]; simvastatin 5 and 10 μM or tipifarnib 2 and 5 μM, 22, 30 and 48 hours): no significant inhibition of IL-8 production, except for 5 μM at 22 hours
LPS-induced MMP-9 secretion ([2]; simvastatin 5 and 10 μM or tipifarnib 2 and 5 μM, 30 and 48 hours): dose-dependently inhibited
extent of inhibition of MCP-1 secretion compared with 10 μM simvastatin ([2]; tipifarnib 2 μM): much greater
LPS-induced TNF-α production, second phase of induction ([2]; tipifarnib 5 μM): totally inhibited
IL-1β secretion ([2]; tipifarnib 2 and 5 μM): dose-dependent inhibition
inhibition of IL-6 release ([2]; tipifarnib 2 and 5 μM): inhibition was observed at all time points
MCP-1 secretion ([2]; tipifarnib 2 and 5 μM, up to 48 hours): dose-dependent inhibition
IC50 [3]: ~1000 nM

Source: US20120196766A1, “Therapeutic Use of Farnesyltransferase Inhibitors and Methods of Monitoring the Efficacy Thereof” (priority 2004, published 2012)
